Consider 1 substance from patent US20030135033A1, “Compounds and methods for the identification and/ or validation of a target” (priority 2002, published 2003).

Common to all, as to format: cell-based, human
In data set [1] the test system is PTEN mRNA. Put plainly: Immunoblot of PTEN and phosphorylated Akt after GeneBloc transfection of HeLa cells. Particulars: 30 nM, 48 h. How it is done: More particularly, HeLa cells (380.000 cells/plate) and PC-3 cells (450.000 cells/plate) were transfected in parallel on 10 cm plates. Each cell line was treated for 48 h in duplicate samples with 30 nM of PTEN GeneBloc 53 or GBC. The cell extracts were analyzed by immunoblotting for the relative amounts of p110, PTEN and phosphorylated Akt (P*-Akt) as indicated on the right. The band which migrates just above the PTEN signal was caused by unspecific reaction of the secondary antibody.
More particularly, a schematic pathway with PTEN inhibiting PI-3K activity is shown which would normally phosphorylate Akt thus leading to proliferation, survival and migration of HeLa cells as a model system for PTEN +/+ cells. FIG. 9 B presents the Western immunoblot analysis of an experiment studying the influence of PTEN specific antisense oligonucleotide or a control antisense nucleotide designated as mismatch GeneBloc™. PTEN is only present in the control sample, but is absent when PTEN-specific antisense oligonucleotides are used. The successful knockdown of PTEN causes phosphorylation of Akt, indicative of induction of the signalling pathway. […] Growth on matrigel is used as a surrogate in vitro assay for metastatic or invasive cell growth. The cells treated with PTEN third generation antisense oligonucleotide (“PTEN GeneBloc™”) shown in FIG. 9C have a significant growth advantage over the control-treated cells.
Transfections were carried out in 96 well or 10-cm plates (at 30% to 50% confluency) by using various cationic lipids such as Oligofectamine, Lipofectamine (Life Technologies), NC388 (Ribozyme Pharmaceuticals, Inc., Boulder, CO), or FuGene 6 (Roche) according to the manufacturer's instructions. […]
Cells were washed twice with cold phosphate-buffered saline and lysed at 4° C. in lysis buffer containing 20 mM Tris (pH 7.5), 137 mM NaCl, 15% (vol/vol) glycerol, 1% (vol/vol) Nonidet P-40 (NP-40), 2 mM phenylmethylsulfonyl fluoride, […], 20 mM leupeptin, 2 mM benzamidine, 1 mM sodium vanadate, 25 mM […]-glycerol phosphate, 50 mM NaF and 10 mM NaPPi. Lysates were cleared by centrifugation at 14,000× g for 5 minutes and aliquots of the lysates were analyzed for protein expression by Western-blotting: Samples were separated by SDS-PAGE and transferred to nitrocellulose-filters (Schleicher & Schuell). […] Bound antibody was detected using anti-mouse- or anti-rabbit-conjugated horse radish peroxidase (Transduction Laboratories, BD) in TBST, washed, and developed using the SuperSignal West Dura (Pierce) or ECL (Amersham) chemoluminescence substrates.
The effect of GeneBloc induced transient knock down of PTEN expression was to be compared to the loss of PTEN function in human tumor cells. […] After 2 days the cell extracts were analyzed by Western-blotting. […]
(Immunoblotting shows a protein as a band on a membrane.)

Another data set deals with Hela cells. Description: Cell growth on matrigel. Particulars: 48 h transfection, then 48 to 72 h on matrigel, versus control GeneBloc. From the text: More particularly, a schematic pathway with PTEN inhibiting PI-3K activity is shown which would normally phosphorylate Akt thus leading to proliferation, survival and migration of HeLa cells as a model system for PTEN +/+ cells. FIG. 9 B presents the Western immunoblot analysis of an experiment studying the influence of PTEN specific antisense oligonucleotide or a control antisense nucleotide designated as mismatch GeneBloc™. PTEN is only present in the control sample, but is absent when PTEN-specific antisense oligonucleotides are used. The successful knockdown of PTEN causes phosphorylation of Akt, indicative of induction of the signalling pathway. […] Growth on matrigel is used as a surrogate in vitro assay for metastatic or invasive cell growth. […]
Loss of PTEN function has been correlated with an increased metastatic growth potential in late stage human cancers (Cantley, L. C. and Neel, B. G. (1999). New insights into tumor suppression: PTEN suppresses tumor formation by restraining the phosphoinositide 3-kinase/AKT pathway. Proc Natl Acad Sci U S A 96, 4240-4245; Ali, I. U. (2000). Gatekeeper for endometrium: the PTEN tumor suppressor gene. J Natl Cancer Inst 92, 861-863). […] HeLa cells expressing an inducible version of a constitutively active PI 3-kinase, p110* […] were analyzed in parallel. […]

Data set [2] relates to PTEN mRNA. Put plainly: PTEN knock down by RNAi versus antisense oligonucleotide (Western blot, dose response). How it is done:
The cells were infected using any of these two constructs according to the methods described herein above.
The result of this experiment is depicted in FIG. 18. […] As a positive control an antisense oligonucleotide specific for PTEN referred to as GeneBloc 53 (disclosed above) was also applied to the respective expression system at different concentrations (60 nM, 15 nM, 3.75 nM and 0.93 nM).
To further illustrate the impact of RNAi which is specific for PTEN, on the ratio of PTEN to p110 a dose response was generated which is shown in FIG. 19. From FIG. 19 it may be taken that even at the lowest concentration, i. e. 0.03 nM, the PTEN specific RNAi still reduces the ratio of PTEN to p 110 to about one third of the respective control. […] This is in clear contrast to RNAi which is not specific for PTEN.

Take “ucuccuuTTGTTTCTGcuaacga (UCUCCUUTTGTTTCTGCUAACGA; chemistry not fully specified) [PTEN 53, third generation antisense oligonucleotide (GeneBloc) against PTEN]”: the “PTEN (immunoblot)” value with PTEN mRNA [1] is reported as “degradation of PTEN mRNA”; in the data set on PTEN mRNA [1] (listed as PTEN GeneBloc 53), “strong reduction in PTEN protein”. Further, the “phosphorylated Akt (P*-Akt) (immunoblot)” value is listed as “generation of phosphorylated Akt” with PTEN mRNA [1] and “substantial increase in Akt phosphorylation” in the data set with PTEN mRNA [1] (listed as PTEN GeneBloc 53). Besides, in the data set with Hela cells, the growth on matrigel result is “increased potential to form network structures on matrigel and grew better”. Besides, the “concentration required compared to RNAi” value in the data set with PTEN mRNA [2] (PTEN knockdown, Western blot) is recorded as “requires higher concentrations compared to RNAi”. For the same substance, the “PTEN expression (Western blot)” value with PTEN mRNA [2] (antisense oligonucleotide at 60 nM, 15 nM, 3.75 nM and 0.93 nM) was “allows for a specific knockdown of PTEN”.
